From patent US8642544B2, “N-terminus conformationally constrained GLP-1 receptor agonist compounds” (Amylin Pharmaceuticals, LLC, priority 2009, dated 2014)

Experiments:
[1] = biological target: T1, GLP-1 receptor (Rattus norvegicus, UniProt P32301); assay: in vitro functional assay at the GLP-1 receptor (cyclase, cAMP production in RIN m5f cell membranes); type: biochemical; settings: Cyclase GLP-1 Receptor EC50 (nM), Table 1; RIN m5f cell membranes, cAMP production (AlphaScreen)
T1 construct: 96-well assay plate containing RIN m5f cell membranes in an ATP/GTP mixture; endogenous in cells; host or cells: RIN m5f cell membranes
T1 sequence (P32301 22-463): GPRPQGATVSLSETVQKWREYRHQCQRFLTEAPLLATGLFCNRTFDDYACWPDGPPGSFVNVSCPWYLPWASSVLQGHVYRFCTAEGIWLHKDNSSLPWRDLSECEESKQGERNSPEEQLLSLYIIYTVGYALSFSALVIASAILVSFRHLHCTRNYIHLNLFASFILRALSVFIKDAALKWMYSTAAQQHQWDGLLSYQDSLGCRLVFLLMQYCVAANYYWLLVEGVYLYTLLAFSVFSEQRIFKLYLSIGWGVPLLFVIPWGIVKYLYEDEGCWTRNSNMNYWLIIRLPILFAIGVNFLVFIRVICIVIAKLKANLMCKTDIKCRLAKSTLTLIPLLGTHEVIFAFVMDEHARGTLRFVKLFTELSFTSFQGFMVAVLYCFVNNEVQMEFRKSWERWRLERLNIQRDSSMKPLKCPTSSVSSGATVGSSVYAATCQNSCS
Experimental: The compounds shown in Table 1 below were analyzed in an in vitro functional assay at the GLP-1 receptor. The assay was conducted as follows: Membrane fractions were prepared from confluent cultures of RIN m5f cells. Compounds were serially diluted with an assay buffer, and then added to a 96-well assay plate containing RIN m5f cell membranes in an ATP/GTP mixture. Cyclase activities were determined by measuring the production of cAMP induced through GLP-1 receptor activation. Quantification of cAMP production was achieved through a competitive chemiluminescence assay with a biotinylated-cAMP probe using Perkin Elmer Fusion™-Alpha Microplate Analyzer (AlphaScreen™ technology). The compound EC50 values were obtained through fitting the concentration-response curves to a four-parameter logistic equation within GraphPad PRISM® software.

[2] = test system: NIH/Swiss female mice; assay: in vivo basal glucose lowering assay; settings: subcutaneous injection
Experimental: Some compounds shown in Table 1 below were analyzed in an in vivo basal glucose lowering assay using the following procedure: A subcutaneous injection of either 200 μl phosphate-buffered saline (PBS) vehicle or test article was given immediately following baseline glucose (t=0) to NIH/Swiss female mice. Tail blood glucose samples were measured at t=2 and 4 hours post dose using a OneTouch® Ultra® (LifeScan, Inc., a Johnson & Johnson Company, Milpitas, Calif.). Body weight was measured daily. Significant test sample effects were identified by ANOVA (p<0.05), followed by Dunnett's post test using GraphPad Prism version 4.00 for Windows (GraphPad Software, San Diego Calif.).

[3] = Table 1, time in hours, tail blood glucose at t=2 and 4 hours post dose
[4] = Table 1, result in words (inactive / similar to GLP-1)

In the case of `CC[C@H](C)[C@H](NC(=O)[C@H](Cc1ccccc1)NC(=O)[C@H](CC(C)C)NC(=O)[C@H](CCCNC(=N)N)NC(=O)[C@@H](NC(=O)[C@H](C)NC(=O)[C@H](CCC(=O)O)NC(=O)[C@H](CCC(=O)O)NC(=O)[C@H](CCC(=O)O)NC(=O)[C@H](CC(C)C)NC(=O)[C@H](CCC(N)=O)NC(=O)[C@H](CCCCN)NC(=O)[C@H](CO)NC(=O)[C@H](CC(C)C)NC(=O)[C@H](CC(=O)O)NC(=O)[C@H](CO)NC(=O)[C@@H](NC(=O)[C@H](Cc1ccccc1)NC(=O)[C@@H](NC(=O)CNC(=O)[C@@H]1CSCN1C(=O)[C@@H](C)NC(=O)[C@@H](N)Cc1c[nH]cn1)[C@@H](C)O)[C@@H](C)O)C(C)C)C(=O)N[C@@H](CCC(=O)O)C(=O)N[C@@H](Cc1ccccc1)C(=O)N[C@@H](CC(C)C)C(=O)N[C@@H](CCCCN)C(=O)N[C@@H](CC(N)=O)C(N)=O` [9D], the EC50 [1] is reported as 0.01 nM and the “In Vivo Glucose-Lowering Assay” value [2, 3] is reported as “more than 4 hours”.
In the case of `CC[C@H](C)[C@H](NC(=O)[C@H](Cc1ccccc1)NC(=O)[C@H](CC(C)C)NC(=O)[C@H](CCCNC(=N)N)NC(=O)[C@@H](NC(=O)[C@H](C)NC(=O)[C@H](CCC(=O)O)NC(=O)[C@H](CCC(=O)O)NC(=O)[C@H](CCC(=O)O)NC(=O)[C@H](CC(C)C)NC(=O)[C@H](CCC(N)=O)NC(=O)[C@H](CCCCN)NC(=O)[C@H](CO)NC(=O)[C@H](CC(C)C)NC(=O)[C@H](CC(=O)O)NC(=O)[C@H](CO)NC(=O)[C@@H](NC(=O)[C@H](Cc1ccccc1)NC(=O)[C@@H](NC(=O)CNC(=O)C(C)(C)NC(=O)[C@@H](C)NC(=O)[C@@H](N)Cc1c[nH]cn1)[C@@H](C)O)[C@@H](C)O)C(C)C)C(=O)N[C@@H](CCC(=O)O)C(=O)N[C@@H](Cc1ccccc1)C(=O)N[C@@H](CC(C)C)C(=O)N[C@@H](CCCCN)C(=O)N[C@@H](CC(N)=O)C(N)=O` [9B], the EC50 [1] is reported as 0.03 nM and the “In Vivo Glucose-Lowering Assay” value [2, 3] is reported as “more than 4 hours”.
In the case of `CC[C@H](C)[C@H](NC(=O)[C@H](Cc1ccccc1)NC(=O)[C@H](CC(C)C)NC(=O)[C@H](CCCNC(=N)N)NC(=O)[C@@H](NC(=O)[C@H](C)NC(=O)[C@H](CCC(=O)O)NC(=O)[C@H](CCC(=O)O)NC(=O)[C@H](CCC(=O)O)NC(=O)[C@H](CC(C)C)NC(=O)[C@H](CCC(N)=O)NC(=O)[C@H](CCCCN)NC(=O)[C@H](CO)NC(=O)[C@H](CC(C)C)NC(=O)[C@H](CC(=O)O)NC(=O)[C@H](CO)NC(=O)[C@@H](NC(=O)[C@H](Cc1ccccc1)NC(=O)[C@@H](NC(=O)CN1C[C@H](CC(=O)O)[C@H](NC(=O)[C@H](C)NC(=O)[C@@H](N)Cc2c[nH]cn2)C1=O)[C@@H](C)O)[C@@H](C)O)C(C)C)C(=O)N[C@@H](CCC(=O)O)C(=O)N[C@@H](Cc1c[nH]c2ccccc12)C(=O)N[C@@H](CC(C)C)C(=O)N[C@@H](CCCCN)C(=O)N[C@@H](CCC(N)=O)C(=O)NCC(=O)NCC(=O)N1CCC[C@H]1C(=O)N[C@@H](CO)C(=O)N[C@@H](CCCCN)C(=O)N[C@@H](CCC(=O)O)C(=O)N[C@H](C(=O)N[C@H](C(=O)N[C@@H](CO)C(=O)O)[C@@H](C)CC)[C@@H](C)CC` [16D], the EC50 [1] is reported as 1 nM and the “In Vivo Glucose-Lowering Assay” value [2, 4] is reported as “inactive”.
For `CC[C@H](C)[C@H](NC(=O)[C@H](Cc1ccccc1)NC(=O)[C@H](CC(C)C)NC(=O)[C@H](CCCNC(=N)N)NC(=O)[C@@H](NC(=O)[C@H](C)NC(=O)[C@H](CCC(=O)O)NC(=O)[C@H](CCC(=O)O)NC(=O)[C@H](CCC(=O)O)NC(=O)[C@H](CC(C)C)NC(=O)[C@H](CCC(N)=O)NC(=O)[C@H](CCCCN)NC(=O)[C@H](CO)NC(=O)[C@H](CC(C)C)NC(=O)[C@H](CC(=O)O)NC(=O)[C@H](CO)NC(=O)[C@@H](NC(=O)[C@H](Cc1ccccc1)NC(=O)[C@@H](NC(=O)CNC(=O)[C@@H]1CCCN1C(=O)CNC(=O)[C@@H](N)Cc1c[nH]cn1)[C@@H](C)O)[C@@H](C)O)C(C)C)C(=O)N[C@@H](CCC(=O)O)C(=O)N[C@@H](Cc1ccccc1)C(=O)N[C@@H](CC(C)C)C(=O)N[C@@H](CCCCN)C(=O)N[C@@H](CC(N)=O)C(N)=O` [5B], the EC50 [1] was 0.53 nM and the “In Vivo Glucose-Lowering Assay” value [2, 3] was “more than 4 hours”.
For `CC[C@H](C)[C@H](NC(=O)[C@H](Cc1ccccc1)NC(=O)[C@H](CC(C)C)NC(=O)[C@H](CCCNC(=N)N)NC(=O)[C@@H](NC(=O)[C@H](C)NC(=O)[C@H](CCC(=O)O)NC(=O)[C@H](CCC(=O)O)NC(=O)[C@H](CCC(=O)O)NC(=O)[C@H](CC(C)C)NC(=O)[C@H](CCC(N)=O)NC(=O)[C@H](CCCCN)NC(=O)[C@H](CO)NC(=O)[C@H](CC(C)C)NC(=O)[C@H](CC(=O)O)NC(=O)[C@H](CO)NC(=O)[C@@H](NC(=O)[C@H](Cc1ccccc1)NC(=O)[C@@H](NC(=O)[C@H](C)N1CC[C@@H](C(=O)O)[C@H](NC(=O)[C@H](C)NC(=O)[C@@H](N)Cc2c[nH]cn2)C1=O)[C@@H](C)O)[C@@H](C)O)C(C)C)C(=O)N[C@@H](CCC(=O)O)C(=O)N[C@@H](Cc1c[nH]c2ccccc12)C(=O)N[C@@H](CC(C)C)C(=O)N[C@@H](CCCCN)C(=O)N[C@@H](CCC(N)=O)C(=O)NCC(=O)NCC(=O)N1CCC[C@H]1C(=O)N[C@@H](CO)C(=O)N[C@@H](CCCCN)C(=O)N[C@@H](CCC(=O)O)C(=O)N[C@H](C(=O)N[C@H](C(=O)N[C@@H](CO)C(=O)O)[C@@H](C)CC)[C@@H](C)CC` [16F], the EC50 [1] was 0.61 nM and the “In Vivo Glucose-Lowering Assay” value ([2]; Table 1, time printed in minutes) was “about 30 minutes”.
With `CC[C@H](C)[C@H](NC(=O)[C@H](Cc1ccccc1)NC(=O)[C@H](CC(C)C)NC(=O)[C@H](CCCNC(=N)N)NC(=O)[C@@H](NC(=O)[C@H](C)NC(=O)[C@H](CCC(=O)O)NC(=O)[C@H](CCC(=O)O)NC(=O)[C@H](CCC(=O)O)NC(=O)[C@H](CC(C)C)NC(=O)[C@H](CCC(N)=O)NC(=O)[C@H](CCCCN)NC(=O)[C@H](CO)NC(=O)[C@H](CC(C)C)NC(=O)[C@H](CC(=O)O)NC(=O)[C@H](CO)NC(=O)[C@@H](NC(=O)[C@H](Cc1ccccc1)NC(=O)[C@@H](NC(=O)CNC(=O)[C@@H]1CS(=O)(=O)CN1C(=O)[C@@H](C)NC(=O)[C@@H](N)Cc1c[nH]cn1)[C@@H](C)O)[C@@H](C)O)C(C)C)C(=O)N[C@@H](CCC(=O)O)C(=O)N[C@@H](Cc1ccccc1)C(=O)N[C@@H](CC(C)C)C(=O)N[C@@H](CCCCN)C(=O)N[C@@H](CC(N)=O)C(N)=O` [9F] the EC50 [1] was 0.07 nM and the “In Vivo Glucose-Lowering Assay” value [2, 3] was “more than 4 hours”.
`CC[C@H](C)[C@H](NC(=O)[C@H](Cc1ccccc1)NC(=O)[C@H](CC(C)C)NC(=O)[C@H](CCCNC(=N)N)NC(=O)[C@@H](NC(=O)[C@H](C)NC(=O)[C@H](CCC(=O)O)NC(=O)[C@H](CCC(=O)O)NC(=O)[C@H](CCC(=O)O)NC(=O)[C@H](CC(C)C)NC(=O)[C@H](CCC(N)=O)NC(=O)[C@H](CCCCN)NC(=O)[C@H](CO)NC(=O)[C@H](CC(C)C)NC(=O)[C@H](CC(=O)O)NC(=O)[C@H](CO)NC(=O)[C@@H](NC(=O)[C@H](Cc1ccccc1)NC(=O)[C@@H](NC(=O)[C@@H]1CSC2[C@H](CC(=O)O)[C@H](NC(=O)[C@H](C)NC(=O)[C@@H](N)Cc3c[nH]cn3)C(=O)N21)[C@@H](C)O)[C@@H](C)O)C(C)C)C(=O)N[C@@H](CCC(=O)O)C(=O)N[C@@H](Cc1c[nH]c2ccccc12)C(=O)N[C@@H](CC(C)C)C(=O)N[C@@H](CCCCN)C(=O)N[C@@H](CCC(N)=O)C(=O)NCC(=O)NCC(=O)N1CCC[C@H]1C(=O)N[C@@H](CO)C(=O)N[C@@H](CCCCN)C(=O)N[C@@H](CCC(=O)O)C(=O)N[C@H](C(=O)N[C@H](C(=O)N[C@@H](CO)C(=O)O)[C@@H](C)CC)[C@@H](C)CC` (some centres unmarked) [16A] was tested, and the EC50 [1] was 0.52 nM and the “In Vivo Glucose-Lowering Assay” value [2, 4] was “inactive”.
